Like-named read-outs stand apart in the source and are kept apart here.
Assays:
nude mice = experiment: in vivo; parameters: species or system nude mice (BALB/c nu/nu); conditions: intravenous, continuous 5 days, maximum dose at which no animal was dead within 2 weeks, 20160 min
Description: (§1) (1) Measurement of maximum tolerated dose (MTD) of the spicamycin derivatives in nude mice
(§2) The spicamycin derivative was dissolved in dimethylsulfoxide (DMSO) and Cremophor EL® at the same volume as DMSO was added. Physiological saline was added so that the concentration of DMSO and Cremophor EL® was finally adjusted to 1%, respectively, and thus injection liquids of spicamycin derivative in a variety of concentrations were prepared. […] The maximum dose at which no animal was dead was defined as the MTD of the respective derivatives.

[1] = system: human colon cancer (COL-1); assay type: in vivo, mouse
Description: (2) Method for measuring the antitumor effect on human colon cancer (COL-1)
COL-1, a human colon cancer, was transplanted subcutaneously into nude mice. When the tumor had grown to a volume of about 100 mm^3, the nude mice were divided into groups of 5 animals so that the average tumor volumes of respective groups were equalized. The respective spicamycin derivatives were administered to test groups at their MTDs, while physiological saline (solvent) containing 1% DMSO and 1% Cremophor EL® was administered to the control group. […] RV is expressed as RV =Vn/Vo where Vn is the tumor volume on day n and Vo is the initial tumor volume at the time treatment was commenced.

Acute toxicity (LD50) = conditions: mouse, in vivo; intravenous, ICR mice (female, 6 weeks old), 14 days observation, Litchfield and Wilcoxon
From the text: The LD50 was obtained from the mortalities at the respective dosage groups by the Litchfield and Wilcoxon's method.

in vivo = experiment: in vivo; parameters: species or system nude mice (BALB/c nu/nu); conditions: mouse, in vivo; intravenous, continuous 5 days, nude mice; maximum dose at which no animal was dead within 2 weeks; read-out: Maximum tolerated dose
Description: as §1, §2

L1210 mouse leukemia = conditions: in vivo; cited from earlier work
Walker 256 rat sarcoma = conditions: in vivo; cited from earlier work
[2] = /minimum effective dose (effective: TGIR≥50)
[3] = COL-1 s.c. in nude mice, at MTD, TGIR=(1-Tx/Cx)×100, maximum during about 3 weeks
[4] = COL-1 s.c. in nude mice, at MTD, minimum throughout the test period

CCCCCCCCC/C=C/C=C/C(=O)NCC(=O)N[C@@H]1[C@@H](O)[C@@H](O)[C@@H](Nc2ncnc3[nH]cnc23)O[C@H]1C(O)CO (stereo partly drawn) [SPK241, 6-[4'-N-(N'-trans,trans-2,4-tetradecadienoylglycyl)spicaminyl-amino]purine]
Maximum tolerated dose (nude mice): 6 mg/kg/day
Therapeutic index [1, 2]: 16
TGIR (tumor growth inhibition rate, maximum) ([1]; in vivo, sc): 97
minTx (relative tumor volume when reduced to the minimum) ([1]; in vivo, sc): 0.14
LD50 at 336 h (Acute toxicity (LD50)): 110 mg/kg

O=C(CCCCCCCCCCCCBr)NCC(=O)N[C@@H]1[C@@H](O)[C@@H](O)[C@@H](Nc2ncnc3[nH]cnc23)O[C@H]1C(O)CO (stereo partly drawn) [SPK276, 6-[4'-N-(N'-13-bromotridecanoylglycyl)spicaminyl-amino]purine]
MTD at 336 h (in vivo): 12 mg/kg/day
TGIR (tumor growth inhibition rate, maximum) [1, 3]: 96
minTx (relative tumor volume when reduced to the minimum) [1, 4]: 0.16
Therapeutic index ([1]; mouse, in vivo): 8

CC(C)CCCCCCCCCCCCC(=O)NCC(=O)NC1C(O)C(O)C(Nc2ncnc3nc[nH]c23)OC1C(O)CO (stereo not drawn) [septacidin]
antitumor activity against L1210 mouse leukemia (L1210 mouse leukemia): no antitumor activity
antitumor activity against Walker 256 rat sarcoma (Walker 256 rat sarcoma): no antitumor activity

CC(C)CCCCCCCCCC(=O)NCC(=O)N[C@@H]1[C@@H](O)[C@@H](O)[C@@H](Nc2ncnc3[nH]cnc23)O[C@H]1C(O)CO (stereo partly drawn) [SPK251, 6-[4'-N-(N'-11-methyldodecanoylglycyl)spicaminyl-amino]purine]
MTD at 336 h (in vivo): 6 mg/kg/day
TGIR (tumor growth inhibition rate, maximum) [1, 3]: 97
Therapeutic index ([1]; mouse, in vivo): 8

CCCCCCCCC/C=C/C(=O)NCC(=O)N[C@@H]1[C@@H](O)[C@@H](O)[C@@H](Nc2ncnc3[nH]cnc23)O[C@H]1C(O)CO (stereo partly drawn) [SPK86, 6-[4'-N-(N'-trans-2-dodecenoylglycyl)spicaminyl-amino]purine]
MTD at 336 h (in vivo): 18 mg/kg/day
TGIR (tumor growth inhibition rate, maximum) [1, 3]: 86

CCCCCCCCCCC[C@H](O)CC(=O)NCC(=O)NC1C(O)C(O)C(Nc2ncnc3[nH]cnc23)OC1C(O)CO (single isomer, unassigned) [SPK274, 6-[4'-N-(N'-(s)-3-hydroxytetradecanoylglydyl)spicaminyl-amino]purine]
MTD at 336 h (in vivo): 24 mg/kg/day
TGIR (tumor growth inhibition rate, maximum) [1, 3]: 92
minTx (relative tumor volume when reduced to the minimum) [1, 4]: 0.16
Therapeutic index ([1]; mouse, in vivo): 4

CCCCCC/C=C\CCCCCCCC(=O)NCC(=O)N[C@@H]1[C@@H](O)[C@@H](O)[C@@H](Nc2ncnc3[nH]cnc23)O[C@H]1C(O)CO (stereo partly drawn) [SPK148, 6-[4,-N-(N'-cis-9-hexadecenoylglycyl)spicaminyl-amino]purine]
MTD at 336 h (in vivo): 3.4 mg/kg/day
Therapeutic index [1, 2]: 4
TGIR (tumor growth inhibition rate, maximum) [1, 3]: 94
minTx (relative tumor volume when reduced to the minimum) [1, 4]: 0.21

O=C(CCCCCCCCCCCCCCF)NCC(=O)NC1C(O)C(O)C(Nc2ncnc3[nH]cnc23)OC1C(O)CO (stereo not drawn) [SPK247, 6-[4,-N-(N'-15-fluoropentadecanoylglycyl)spicaminyl-amino]purine]
MTD at 336 h (in vivo): 6 mg/kg/day
TGIR (tumor growth inhibition rate, maximum) [1, 3]: 96
minTx (relative tumor volume when reduced to the minimum) [1, 4]: 0.16
Therapeutic index ([1]; mouse, in vivo): 8

CC(C)CCCCCCCCCCC(=O)NCC(=O)N[C@@H]1[C@@H](O)[C@@H](O)[C@@H](Nc2ncnc3[nH]cnc23)O[C@H]1C(O)CO (stereo partly drawn) [SPK136, 6-[4'-N-(N'-12-methyltridecanoylglycyl)spicaminyl-amino]purine]
MTD at 336 h (in vivo): 2 mg/kg/day
Therapeutic index [1, 2]: 4
TGIR (tumor growth inhibition rate, maximum) [1, 3]: 84

C=CCCCCCCCCCC(=O)NCC(=O)N[C@@H]1[C@@H](O)[C@@H](O)[C@@H](Nc2ncnc3[nH]cnc23)O[C@H]1C(O)CO (stereo partly drawn) [SPK44, 6-[4 '-N-(N'-11-dodecenoylglycyl)spicaminyl-amino]purine]
MTD at 336 h (in vivo): 4 mg/kg/day
Therapeutic index [1, 2]: 4
TGIR (tumor growth inhibition rate, maximum) [1, 3]: 94
minTx (relative tumor volume when reduced to the minimum) [1, 4]: 0.16

CCCCCCCCCCCCC(F)(F)C(=O)NCC(=O)NC1C(O)C(O)C(Nc2ncnc3[nH]cnc23)OC1C(O)CO (stereo not drawn) [SPK182, 6-[4,-N-(N'-2,2-difluorotetradecanoylglycyl)spicaminyl-amino]purine]
MTD at 336 h (in vivo): 36 mg/kg/day
TGIR (tumor growth inhibition rate, maximum) [1, 3]: 90
minTx (relative tumor volume when reduced to the minimum) [1, 4]: 0.24
Therapeutic index ([1]; mouse, in vivo): 8
